Converted amounts (≈) assume the structure as drawn.
Columns and labels:
Format in all cases: functional, cell-based
[1] = system: P388; test: Cytotoxicity against mouse P388 cells assessed as inhibition of cell growth incubated for 72 hrs by MTT assay; details: P388, 72 h
[2] = system: HL-60; test: Cytotoxicity against human HL-60 cells assessed as reduction in cell growth measured for 72 hrs by MTT assay; details: HL-60, 72 h
[3] = system: L1210; test: Cytotoxicity against mouse L1210 cells assessed as reduction in cell growth measured after 72 hrs by MTT assay; details: L1210, 72 h
[4] = system: HeLa; test: Antitumor activity against human HeLa cells assessed as inhibition of cell growth by MTT assay
[5] = Antitumor activity against human A375.S2 cells assessed as cell growth inhibition
[6] = system: A549; test: Anticancer activity against human A549 cells assessed as reduction in cell growth
[7] = system: Bel-7402; test: Anticancer activity against human Bel-7402 cells assessed as reduction in cell growth measured for 24 hrs by MTT assay; details: Bel-7402, 24 h
[8] = system: HL-60; test: Anticancer activity against human HL-60 cells assessed as inhibition of cell growth measured after 24 hrs by CCK-8 assay; details: HL-60, 24 h
[9] = system: P388; test: Antitumor activity against mouse P388 cells assessed as cell growth inhibition
[10] = system: HL-60; test: Cytotoxicity against human HL-60 cells assessed as reduction in cell viability
[11] = system: HeLa; test: Cytotoxicity against human HeLa cells assessed as reduction in cell viability by MTT assay
[12] = system: A-375; test: Cytotoxicity against human A-375 cells assessed as reduction in cell viability by CCK-8 assay
[13] = system: HepG2; test: Cytotoxicity against human HepG2 cells assessed as reduction in cell growth incubated for 48 hrs by CCK-8 assay; details: HepG2, 48 h
[14] = system: MDA-MB-231; test: Cytotoxicity against human MDA-MB-231 cells assessed as reduction in cell growth incubated for 48 hrs by CCK-8 assay; details: MDA-MB-231, 48 h
[15] = system: MKN-1; test: Antiproliferative activity against human MKN-1 cells assessed as reduction in cell viability measured for 48 hrs by CCK-8 assay; details: MKN-1, 48 h
[16] = system: HeLa; test: Cytotoxicity against human HeLa cells assessed as reduction in cell growth measured after 72 hrs by MTT assay
[17] = system: K562; test: Cytotoxicity against human K562 cells assessed as reduction in cell viability by MTT assay
[18] = system: HeLa; test: Cytotoxicity against human HeLa cells assessed as reduction in cell growth measured after 24 hrs by MTT assay
[19] = system: U-937; test: Cytotoxicity against human U-937 cells assessed as reduction in cell viability incubated for 72 hrs by MTT assay; details: U-937, 72 h
[20] = system: HepG2; test: Cytotoxicity against human HepG2 cells assessed as reduction in cell growth incubated for 72 hrs by SRB assay; details: HepG2, 72 h
[21] = system: U-937; test: Cytotoxicity against human U-937 cells assessed as reduction in cell viability
[22] = system: HepG2; test: Cytotoxicity against human HepG2 cells assessed as reduction in cell growth incubated for 48 hrs by SRB assay; details: HepG2, 48 h
[23] = system: PC-3; test: Cytotoxicity against human PC-3 cells assessed as reduction in cell viability measured after 72 hrs by MTT assay; details: PC-3, 72 h
[24] = system: HCT-116; test: Cytotoxicity against human HCT-116 cells assessed as reduction in cell viability incubated for 72 hrs by MTT assay; details: HCT-116, 72 h
[25] = system: SF-268; test: Cytotoxicity against human SF-268 cells assessed as reduction in cell growth incubated for 48 hrs by SRB assay; details: SF-268, 48 h
[26] = system: HEK293; test: Cytotoxicity against HEK293 cells assessed as cell growth inhibition; details: Homo sapiens
[27] = system: MCF7; test: Cytotoxicity against human MCF7 cells assessed as reduction in cell growth incubated for 48 hrs by SRB assay; details: MCF7, 48 h
[28] = system: NCI-H460; test: Cytotoxicity against human NCI-H460 cells assessed as reduction in cell growth incubated for 48 hrs by SRB assay; details: NCI-H460, 48 h
[29] = system: NCI-H460; test: Cytotoxicity against human NCI-H460 cells assessed as reduction in cell growth incubated for 72 hrs by SRB assay; details: NCI-H460, 72 h
[30] = system: MCF7; test: Cytotoxicity against human MCF7 cells assessed as reduction in cell growth incubated for 72 hrs by SRB assay; details: MCF7, 72 h
[31] = Cytotoxicity against mouse FM3A tsFT210 cells assessed as inhibition of cell growth
[32] = system: SF-268; test: Cytotoxicity against human SF-268 cells assessed as reduction in cell growth incubated for 72 hrs by SRB assay; details: SF-268, 72 h
[33] = system: HCT-116; test: Cytotoxicity against human HCT-116 cells assessed as reduction in cell viability incubated for 24 hrs by MTT assay; details: HCT-116, 24 h
[34] = system: RKO; test: Cytotoxicity against human RKO cells assessed as inhibition of cell growth measured after 48 hrs by MTT assay
[35] = system: PC-3; test: Cytotoxicity against human PC-3 cells assessed as reduction in cell viability
[36] = system: MKN-1; test: Antiproliferative activity against human MKN-1 cells assessed as inhibition of cell proliferation by CCK8 assay
[37] = system: MKN-1; test: Cytotoxicity against human MKN-1 cells assessed as reduction in cell viability

`CSC12NC(=O)C(Cc3ccc(OCC=C(C)C)cc3)(NC1=O)[C@H]1C(=O)O[C@H](C)C/C=C/C(=O)O[C@H](C)C[C@@H](O)C(=O)[C@H]12` (some centres not stated) showed an IC50 [1] of 6.8 µM, an IC50 [2] of 2.2 µM and an IC50 [3] of 11.7 µM.
Work on `CC(C)=CCC/C(C)=C/COc1ccc(C[C@@H]2NC(=O)[C@H](C)NC2=O)cc1` yielded an IC50 [4] of 3.4 µM, an IC50 [5] of 4.6 µM and an IC50 [6] of 1.37 µM. For the same compound, the IC50 [7] was 3.2 µM, the IC50 [8] was 1.73 µM and the IC50 [9] was 2.86 µM.
`COc1ccc2c(c1)N[C@@]1(C2=O)[C@H](C=C(C)C)N2C(=O)[C@]3(O)CCCN3C(=O)[C@]2(O)[C@H]1O` showed an IC50 [10] of 6 µM.
For `CS[C@@H]1C(=O)N[C@](Cc2ccc(OCC=C(C)C)cc2)(SC)C(=O)N1C`, the IC50 [11] was 4.2 µM.
With `CC(C)C[C@@H]1NC(=O)[C@@H]2C[C@@]3([C@@]45C[C@H]6C(=O)N[C@@H](Cc7ccccc7)C(=O)N6[C@@H]4Nc4ccccc45)c4ccccc4N[C@H]3N2C1=O` the IC50 [12] was 10.3 µM.
With `COc1ccc2c(c1)NC(=O)[C@]21[C@H](C=C(C)C)N2C(=O)[C@@H]3CCCN3C(=O)[C@]2(O)[C@H]1O` the IC50 [13] was 14.1 µM and the IC50 [14] was 35.5 µM.
For `C=CC(C)(C)c1[nH]c2cc(CC=C(C)C)ccc2c1/C=C1\NC(=O)[C@H](C)NC1=O`, the IC50 [15] was 4.6 µM.
With `CC(C)[C@H]1C(=O)N2[C@@H]3N4c5ccccc5[C@]3(C[C@@H]3[C@@]5(C)CCCC(C)(C)[C@@H]5CC[C@]34C)C[C@H]2C(=O)N1C` the IC50 [16] was 16.7 µM.
`CS[C@@H]1C(=O)N(C)/C(=C/c2ccc(OCC=C(C)C)cc2)C(=O)N1C` gave an IC50 [17] of 12.7 µM.
Compound `O=C1N[C@@H](C[C@@]2(O)c3ccccc3N3C(=O)C[C@@H](c4ccccc4)N[C@H]32)C(=O)N[C@H]1Cc1ccccc1` has an IC50 [18] of 8.4 µg/mL (≈ 16.9 µM).
In the case of `CN1C(=O)[C@]23CC4=CC=C[C@H](O)[C@H]4N2C(=O)[C@@]1(CO)SS3` [GLIOTOXIN], the IC50 [19] is reported as 0.52 µM, the IC50 [20] is reported as 0.24 µM and the IC50 [21] is reported as 0.2 µM. The IC50 [22] was 0.21 µM, the IC50 [23] was 15.9 µM and the IC50 [24] was 0.41 µM. It also gave an IC50 [25] of 0.24 µM, an IC50 [26] of 1.58 µM and an IC50 [27] of 0.08 µM. For the same compound, the IC50 [28] was 0.24 µM, the IC50 [29] was 0.21 µM and the IC50 [30] was 0.08 µM. The IC50 [31] was 0.15 µg/mL (≈ 0.46 µM), the IC50 [32] was 0.24 µM and the IC50 [33] was 1.24 µM. For the same compound, the IC50 [34] was 0.8 µM and the IC50 [35] was 0.39 µM.
Compound `C=CC(C)(C)c1[nH]c2ccccc2c1/C=c1\[nH]c(=O)c(=C)[nH]c1=O` [NEOECHINULIN B] has an IC50 [36] of 20.7 µM and an IC50 [37] of 4.6 µM.

From ChEMBL document CHEMBL5500324, “The potential of marine-derived piperazine alkaloids: Sources, structures and bioactivities” (Eur J Med Chem, 2024)
